Experimental data reported in patent publication US20240343727A1, “PYRIDAZINONE OR PYRIDINONE COMPOUNDS, PREPARATION METHODS AND USES THEREOF” (InventisBio Co., Ltd., priority 2021, published 2024).

Target: T1, PARP7 (Homo sapiens, UniProt Q7Z3E1)
T1 sequence (Q7Z3E1 1-657): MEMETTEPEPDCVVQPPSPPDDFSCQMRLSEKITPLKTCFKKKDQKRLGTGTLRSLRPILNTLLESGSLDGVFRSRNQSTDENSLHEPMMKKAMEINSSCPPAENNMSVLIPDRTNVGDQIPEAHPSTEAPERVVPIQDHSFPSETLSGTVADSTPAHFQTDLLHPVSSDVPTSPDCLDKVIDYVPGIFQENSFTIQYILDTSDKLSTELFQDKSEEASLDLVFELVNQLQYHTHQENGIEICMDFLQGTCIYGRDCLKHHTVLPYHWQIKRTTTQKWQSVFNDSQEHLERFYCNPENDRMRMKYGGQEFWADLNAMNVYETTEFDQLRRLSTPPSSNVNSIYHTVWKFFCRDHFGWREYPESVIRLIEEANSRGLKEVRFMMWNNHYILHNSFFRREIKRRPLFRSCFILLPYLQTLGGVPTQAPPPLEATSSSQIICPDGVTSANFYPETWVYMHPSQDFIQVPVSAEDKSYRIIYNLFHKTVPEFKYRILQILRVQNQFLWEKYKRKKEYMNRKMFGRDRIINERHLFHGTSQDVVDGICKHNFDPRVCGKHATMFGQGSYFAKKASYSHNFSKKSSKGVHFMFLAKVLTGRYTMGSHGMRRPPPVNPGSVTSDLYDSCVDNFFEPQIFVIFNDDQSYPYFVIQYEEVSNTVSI
Assay: PARP7 TR-FRET assay (binding, displacement of biotinylated Probe A)
Settings: 6 nM PARP7, 2 nM Probe A, 25° C., 30 min
Protocol: Biological Assay Example A: PARP7 TR-FRET Assay
A time-resolved fluorescence energy transfer (TR-FRET) assay was used to test binding activity of compounds to PARP7. Two microliter test compound was added in 384-well plate. Reactions were performed in a 6 uL volume by adding 4 uL mixture of PARP7 and Probe A (a biotinylated probe binding to the PARP7: N-(6-(2-(4-((2-(6-oxo-5-(trifluoromethyl)-1,6-dihydropyridazin-4-yl) isoindolin-5-yl) oxy) piperidin-1-yl) acetamido) hexyl)-5-((3aS,4S,6aR)-2-oxohexahydro-1H-thieno [3,4-d]imidazol-4-yl) pentanamide, made as reported in WO2019212937A1) in assay buffer (20 mM HEPES pH 8.0, 100 mM NaCl, 0.1% BSA, 2 mM DTT and 0.002% Tween20). The final concentration of PARP7 and Probe A were 6 nM and 2 nM, incubating with test compounds at 25° C. for 30 min. Four microliter ULight-anti 6xHis and LANCE Eu-W1024 labeled streptavidin (PerkinElmer) were added with the final concentration of ULight-anti 6xHis and LANCE Eu-W1024 at 4 nM and 0.25 nM. The reaction mixture was incubated at 25° C. for 30 min. The plate was read on a Tecan Spark plate reader (excitation wavelength at 320 nm, emission wavelength at 615 nm and 665 nm with a 90 us delay. The ratio of the 665/615 nm emission was calculated for each well to the amount of complex of PARP7 and Probe A in each well was calculated. The 0.25% DMSO vehicle was used as control and no PARP7 well was as blank well. Inhibition rate is calculated with the formula of % inhibition=100-100*(TRFcmpd-TRFblank)/(TRFcontrol−TRFblank). Inhibition IC50 is calculated with the equation of Y=Bottom+ (Top-Bottom)/(1+10^((LogIC50−X) *Hill Slope))

IC50 | Compound
> 1000 nM | O=C(COC1CCOc2c1n[nH]c(=O)c2C1CC1)N1CCN(c2ncc(C(F)(F)F)cn2)CC1 (single isomer, unassigned) [Compound 129]
< 100 nM | O=C(CC1CN(c2cc(C(F)(F)F)c(=O)[nH]n2)c2cc(F)ccc2O1)N1CCN(c2ncc(C(F)(F)F)cn2)CC1 (single isomer, unassigned) [Compound 130]
100 to 1000 nM | O=C(CC1CN(c2cc(C(F)(F)F)c(=O)[nH]n2)c2cc(F)ccc2O1)N1CCN(c2ncc(C(F)(F)F)cn2)CC1 (single isomer, unassigned) [Compound 131]
< 100 nM | O=C(CC1CN(c2cc(C(F)(F)F)c(=O)[nH]n2)c2cc(Cl)ccc2O1)N1CCN(c2ncc(C(F)(F)F)cn2)CC1 (single isomer, unassigned) [Compound 132]
< 100 nM | O=C(CC1CN(c2cc(C(F)(F)F)c(=O)[nH]n2)c2cc(Cl)ccc2O1)N1CCN(c2ncc(C(F)(F)F)cn2)CC1 (single isomer, unassigned) [Compound 133]
< 100 nM | O=C(CC1CN(c2cc(C(F)(F)F)c(=O)[nH]n2)c2cc(C3CC3)ccc2O1)N1CCN(c2ncc(C(F)(F)F)cn2)CC1 (single isomer, unassigned) [Compound 134]
< 100 nM | O=C(CC1CN(c2cc(C(F)(F)F)c(=O)[nH]n2)c2cc(C3CC3)ccc2O1)N1CCN(c2ncc(C(F)(F)F)cn2)CC1 (single isomer, unassigned) [Compound 135]
< 100 nM | N#CC1(c2ccc3c(c2)N(c2cc(C(F)(F)F)c(=O)[nH]n2)CC(CC(=O)N2CCN(c4ncc(C(F)(F)F)cn4)CC2)O3)CC1 (single isomer, unassigned) [Compound 137]
< 100 nM | C[C@@H]1CN(C(=O)CC2CN(c3cc(C(F)(F)F)c(=O)[nH]n3)c3cc(C#N)ccc3O2)CCN1c1ncc(Cl)cn1 (single isomer, unassigned) [Compound 141]
< 100 nM | O=C(CC1CN(c2cc(C(F)(F)F)c(=O)[nH]n2)c2cc(Cl)ccc2O1)N1CCN(c2cnc(C(F)(F)F)cn2)CC1 (single isomer, unassigned) [Compound 143]
100 to 1000 nM | O=C(CC1CN(c2cc(C(F)(F)F)c(=O)[nH]n2)c2cc(C(F)F)ccc2O1)N1CCN(c2cnc(C(F)(F)F)cn2)CC1 (single isomer, unassigned) [Compound 146]
< 100 nM | CC(C)(O)c1cnc(N2CCN(C(=O)CC3CN(c4cc(C(F)(F)F)c(=O)[nH]n4)c4cc(Cl)ccc4O3)CC2)nc1 (single isomer, unassigned) [Compound 151]
< 100 nM | C[C@@H]1CN(C(=O)CC2CN(c3cc(C(F)(F)F)c(=O)[nH]n3)c3cc(C#N)ccc3O2)CCN1c1ncc(C(F)(F)F)cn1 (single isomer, unassigned) [Compound 152]
< 100 nM | C[C@@H]1CN(C(=O)CC2CN(c3cc(C(F)(F)F)c(=O)[nH]n3)c3cc(C#N)ccc3O2)CCN1c1cnc(C(F)(F)F)cn1 (single isomer, unassigned) [Compound 153]
< 100 nM | N#Cc1ccc2c(c1)N(c1cc(C(F)(F)F)c(=O)[nH]n1)CC(CC(=O)N1CCN(c3ccc(C(F)(F)F)cn3)CC1)O2 (single isomer, unassigned) [Compound 154]
< 100 nM | O=C(CC1CN(c2cc(C(F)(F)F)c(=O)[nH]n2)c2ccc(F)cc2O1)N1CCN(c2ncc(C(F)(F)F)cn2)CC1 (single isomer, unassigned) [Compound 157]
100 to 1000 nM | O=C(CC1CN(c2cc(C(F)(F)F)c(=O)[nH]n2)c2ccc(F)cc2O1)N1CCN(c2ncc(C(F)(F)F)cn2)CC1 (single isomer, unassigned) [Compound 158]
< 100 nM | O=C(CC1CN(c2cc(C(F)(F)F)c(=O)[nH]n2)c2ccc(Cl)cc2O1)N1CCN(c2ncc(C(F)(F)F)cn2)CC1 (single isomer, unassigned) [Compound 163]
100 to 1000 nM | O=C(CC1CN(c2cc(C(F)(F)F)c(=O)[nH]n2)c2ccc(Cl)cc2O1)N1CCN(c2ncc(C(F)(F)F)cn2)CC1 (single isomer, unassigned) [Compound 164]

IC50 | Compound
< 100 nM | Cn1cc(-c2ccc3c(c2)N(c2cc(C(F)(F)F)c(=O)[nH]n2)CC(CC(=O)N2CCN(c4ncc(C(F)(F)F)cn4)CC2)O3)cn1 (single isomer, unassigned) [Compound 192]
< 100 nM | Cn1cc(-c2ccc3c(c2)N(c2cc(C(F)(F)F)c(=O)[nH]n2)CC(CC(=O)N2CCN(c4ncc(C(F)(F)F)cn4)CC2)O3)cn1 (single isomer, unassigned) [Compound 193]
< 100 nM | C#Cc1ccc2c(=O)[nH]nc(N3CCOC(CC(=O)N4CCN(c5ncc(C(F)(F)F)cn5)CC4)C3)c2c1 (single isomer, unassigned) [Compound 194]
< 100 nM | C#Cc1ccc2c(=O)[nH]nc(N3CCOC(CC(=O)N4CCN(c5ncc(C(F)(F)F)cn5)CC4)C3)c2c1 (single isomer, unassigned) [Compound 195]
100 to 1000 nM | C#Cc1ccc2c(N3CCOC(CC(=O)N4CCN(c5ncc(C(F)(F)F)cn5)CC4)C3)n[nH]c(=O)c2c1 (single isomer, unassigned) [Compound 196]
< 100 nM | C#Cc1ccc2c(N3CCOC(CC(=O)N4CCN(c5ncc(C(F)(F)F)cn5)CC4)C3)n[nH]c(=O)c2c1 (single isomer, unassigned) [Compound 197]
< 100 nM | N#Cc1ccc2c(c1)N(c1cc(C(F)(F)F)c(=O)[nH]n1)CC(CC(=O)N1CCN(c3ncc(C(F)(F)F)cn3)CC1)O2 (single isomer, unassigned) [Compound 200]
100 to 1000 nM | N#Cc1ccc2c(c1)N(c1cc(C(F)(F)F)c(=O)[nH]n1)CC(CC(=O)N1CCN(c3ncc(C(F)(F)F)cn3)CC1)O2 (single isomer, unassigned) [Compound 201]
< 100 nM | CS(=O)(=O)c1ccc2c(c1)N(c1cc(C(F)(F)F)c(=O)[nH]n1)CC(CC(=O)N1CCN(c3ncc(C(F)(F)F)cn3)CC1)O2 (single isomer, unassigned) [Compound 205]
< 100 nM | CS(=O)(=O)c1ccc2c(c1)N(c1cc(C(F)(F)F)c(=O)[nH]n1)CC(CC(=O)N1CCN(c3ncc(C(F)(F)F)cn3)CC1)O2 (single isomer, unassigned) [Compound 206]
> 1000 nM | O=C(CC1CN(c2n[nH]c(=O)c3cc(OCC(F)F)ccc23)CCO1)N1CCN(c2ncc(C(F)(F)F)cn2)CC1 (single isomer, unassigned) [Compound 208]
> 1000 nM | O=C(CC1CN(c2n[nH]c(=O)c3cc(OCC(F)F)ccc23)CCO1)N1CCN(c2ncc(C(F)(F)F)cn2)CC1 (single isomer, unassigned) [Compound 209]
< 100 nM | O=C(CC1CN(c2n[nH]c(=O)c3ccc(OCC(F)F)cc23)CCO1)N1CCN(c2ncc(C(F)(F)F)cn2)CC1 (single isomer, unassigned) [Compound 210]
< 100 nM | O=C(CC1CN(c2n[nH]c(=O)c3ccc(OCC(F)F)cc23)CCO1)N1CCN(c2ncc(C(F)(F)F)cn2)CC1 (single isomer, unassigned) [Compound 211]
< 100 nM | N#Cc1ccc(N2CCN(C(=O)CC3CN(c4cc(C(F)(F)F)c(=O)[nH]n4)c4cc(C#N)ccc4O3)CC2)nc1 (single isomer, unassigned) [Compound 215]
< 100 nM | N#Cc1cnc(N2CCN(C(=O)CC3CN(c4cc(C(F)(F)F)c(=O)[nH]n4)c4cc(C#N)ccc4O3)CC2)nc1 (single isomer, unassigned) [Compound 218]
< 100 nM | N#Cc1ccc2c(c1)N(c1cc(C(F)(F)F)c(=O)[nH]n1)CC(CC(=O)N1CCN(c3ncc(C(F)F)cn3)CC1)O2 (single isomer, unassigned) [Compound 219]
< 100 nM | O=C(CC1CN(c2n[nH]c(=O)c3ccc(N4CC(F)(F)C4)cc23)CCO1)N1CCN(c2ncc(C(F)(F)F)cn2)CC1 (single isomer, unassigned) [Compound 220]
< 100 nM | N#Cc1ccc(N2CCN(C(=O)CC3CN(c4cc(C(F)(F)F)c(=O)[nH]n4)c4ccccc4O3)CC2)nc1 (single isomer, unassigned) [Compound 221]
